According to patent publication US12509444B2, “Compounds and methods for CD73 modulation and indications therefor” (Plexxikon Inc., priority 2019, dated 2025):

Assays:
[1] = target: T1, Human CD73 (amino acid residues 27-549) (Homo sapiens, UniProt P21589); assay: CD73 enzymatic assay (luciferase-based indirect assay, CellTiter-Glo); assay type: biochemical; conditions: 0.4 nM CD73, 150 μM AMP, 1 hour at room temperature
T1 construct: Human CD73 (amino acid residues 27-549); His tag (N); made in house; host or cells: E. coli
T1 sequence (P21589 27-549): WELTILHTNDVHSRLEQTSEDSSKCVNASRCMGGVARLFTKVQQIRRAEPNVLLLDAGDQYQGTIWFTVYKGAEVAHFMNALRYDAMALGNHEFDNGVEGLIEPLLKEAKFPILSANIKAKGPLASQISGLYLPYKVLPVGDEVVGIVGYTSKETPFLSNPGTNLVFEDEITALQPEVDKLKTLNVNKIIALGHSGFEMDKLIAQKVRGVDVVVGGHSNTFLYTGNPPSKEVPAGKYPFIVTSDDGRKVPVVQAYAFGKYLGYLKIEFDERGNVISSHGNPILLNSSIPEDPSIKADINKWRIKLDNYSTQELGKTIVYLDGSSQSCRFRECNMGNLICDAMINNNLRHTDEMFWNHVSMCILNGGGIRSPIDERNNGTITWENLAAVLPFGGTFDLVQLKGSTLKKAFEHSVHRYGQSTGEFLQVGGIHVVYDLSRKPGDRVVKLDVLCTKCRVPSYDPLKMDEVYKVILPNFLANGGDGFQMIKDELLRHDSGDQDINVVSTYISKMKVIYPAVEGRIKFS
How it was run: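 Residual AMP inhibits luciferase, so luminescence reports CD73 turnover; read with CellTiter-Glo 2.0 plus 1 μM final ATP, 30 min. Reaction used 0.4 nM N-His CD73 (27-549, E. coli), 150 μM AMP, HEPES pH 7.4 with Tween 20, 1 h at room temperature. IC50 fitted by nonlinear regression.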

[2] = target: T2, human CD73 (Homo sapiens, UniProt P21589); assay: Inhibitor activity against CD73 in cell based assay (CD73 expressing CHO-K1 cells); conditions: CHO-K1 cells expressing human CD73, 150 μM AMP, 4 hours of incubation; read-out: CHO-K1 CELL VARIANT: CD73 IC50
T2 construct: expressed in transfected cells
T2 sequence (P21589 27-549): T1 sequence (P21589 27-549)
How it was run: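 Residual supernatant AMP was quantified via CellTiter-Glo luminescence (1 μM ATP added, 30 min, room temperature) after a 4 h exposure of human CD73-expressing CHO-K1 cells to 150 μM AMP plus compound, top final 10 μM, 8 points. IC50 came from nonlinear regression of percent inhibition.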

IC50 [1]	IC50 [2]	Compound
0.001 to 10 µM	0.001 to 10 µM	O=CN[C@H]1CC[C@H](NC(=O)O[C@@H]2CCN(c3cn[nH]c(=O)c3Cl)C2)CC1 [P-0157, (R)-1-(5-chloro-6-oxo-1,6-dihydropyridazin-4-yl)pyrrolidin-3-yl ((1r,4R)-4-formamidocyclohexyl) carbamate]
0.001 to 10 µM	0.001 to 10 µM	O=C(N[C@H]1CC[C@H](NS(=O)(=O)c2ccccc2)CC1)O[C@@H]1CCN(c2cn[nH]c(=O)c2Cl)C1 [P-0158, (R)-1-(5-chloro-6-oxo-1,6-dihydropyridazin-4-yl)pyrrolidin-3-yl ((1r,4R)-4-(phenylsulfonamido)cyclohexyl)carbamate]
0.001 to 10 µM	0.001 to 10 µM	NCC(=O)N1CCC(NC(=O)O[C@@H]2CCN(c3cn[nH]c(=O)c3Cl)C2)CC1 [P-0159, (R)-1-(5-chloro-6-oxo-1,6-dihydropyridazin-4-yl)pyrrolidin-3-yl (1-glycylpiperidin-4-yl)carbamate]
0.001 to 10 µM	0.001 to 10 µM	CC(=O)NCC(=O)N1CCC(NC(=O)O[C@@H]2CCN(c3cn[nH]c(=O)c3Cl)C2)CC1 [P-0161, (R)-1-(5-chloro-6-oxo-1,6-dihydropyridazin-4-yl)pyrrolidin-3-yl (1-(acetylglycyl)piperidin-4-yl)carbamate]
0.001 to 10 µM	0.001 to 10 µM	CCOC(=O)NCC(=O)N1CCC(NC(=O)O[C@@H]2CCN(c3cn[nH]c(=O)c3Cl)C2)CC1 [P-0162, ethyl (R)-(2-(4-((((1-(5-chloro-6-oxo-1,6-dihydropyridazin-4-yl)pyrrolidin-3-yl)oxy)carbonyl)amino)piperidin-1-yl)-2-oxoethyl) carbamate]
0.001 to 10 µM	0.001 to 10 µM	CS(=O)(=O)NCC(=O)N1CCC(NC(=O)O[C@@H]2CCN(c3cn[nH]c(=O)c3Cl)C2)CC1 [P-0163, (R)-1-(5-chloro-6-oxo-1,6-dihydropyridazin-4-yl)pyrrolidin-3-yl (1-((methylsulfonyl)glycyl)piperidin-4-yl)carbamate]
0.001 to 10 µM	0.001 to 10 µM	O=C(CO)N[C@H]1CC[C@H](NC(=O)O[C@@H]2CCN(c3cn[nH]c(=O)c3Cl)C2)CC1 [P-0164, (R)-1-(5-chloro-6-oxo-1,6-dihydropyridazin-4-yl)pyrrolidin-3-yl ((1r,4R)-4-(2-hydroxyacetamido)cyclohexyl) carbamate]
0.001 to 10 µM	0.001 to 10 µM	CC(=O)N[C@H]1CC[C@H](NC(=O)O[C@@H]2CCN(c3cn[nH]c(=O)c3Cl)C2)CC1 [P-0165, (R)-1-(5-chloro-6-oxo-1,6-dihydropyridazin-4-yl)pyrrolidin-3-yl ((1r,4R)-4-acetamidocyclohexyl)carbamate]
0.001 to 10 µM	0.001 to 10 µM	N#Cc1c(N2CC[C@@H](OC(=O)NC3CCNCC3)C2)cn[nH]c1=O [P-0166, (R)-1-(5-cyano-6-oxo-1,6-dihydropyridazin-4-yl)pyrrolidin-3-yl piperidin-4-ylcarbamate]
0.001 to 10 µM	0.001 to 10 µM	N[C@H]1C[C@H](NC(=O)O[C@@H]2CCN(c3cn[nH]c(=O)c3Cl)C2)C1 [P-0167, (R)-1-(5-chloro-6-oxo-1,6-dihydropyridazin-4-yl)pyrrolidin-3-yl ((1r,3R)-3-aminocyclobutyl)carbamate]

Continued, compound first:

Compound	IC50 [1]	IC50 [2]
O=C(NC1CCC(F)(F)CC1)O[C@@H]1CN(c2cn[nH]c(=O)c2Cl)C[C@H]1F [P-0141, (3R,4R)-1-(5-chloro-6-oxo-1,6-dihydropyridazin-4-yl)-4-fluoropyrrolidin-3-yl (4,4-difluorocyclohexyl)carbamate]	0.001 to 10 µM	0.001 to 10 µM
CCCS(=O)(=O)N[C@H]1CC[C@H](NC(=O)O[C@@H]2CCN(c3cn[nH]c(=O)c3Cl)C2)CC1 [P-0142, (R)-1-(5-chloro-6-oxo-1,6-dihydropyridazin-4-yl)pyrrolidin-3-yl ((1r,4R)-4-(propylsulfonamido)cyclohexyl)carbamate]	0.001 to 10 µM	0.001 to 10 µM
O=C(NC1CCC(C(F)(F)F)CC1)O[C@@H]1CCN(c2cn[nH]c(=O)c2Cl)C1 (stereo partly drawn) [P-0143, (R)-1-(5-chloro-6-oxo-1,6-dihydropyridazin-4-yl)pyrrolidin-3-yl (4-(trifluoromethyl)cyclohexyl) carbamate]	0.001 to 10 µM	0.001 to 10 µM
CS(=O)(=O)N[C@H]1CC[C@H](NC(=O)O[C@@H]2CCN(c3cn[nH]c(=O)c3C#N)C2)CC1 [P-0144, (R)-1-(5-cyano-6-oxo-1,6-dihydropyridazin-4-yl)pyrrolidin-3-yl ((1r,4R)-4-(methylsulfonamido)cyclohexyl)carbamate]	0.001 to 10 µM	0.001 to 10 µM
N#Cc1c(N2CC[C@@H](OC(=O)NC3CCC(F)(F)CC3)C2)cn[nH]c1=O [P-0145, (R)-1-(5-cyano-6-oxo-1,6-dihydropyridazin-4-yl)pyrrolidin-3-yl (4,4-difluorocyclohexyl)carbamate]	0.001 to 10 µM	0.001 to 10 µM
O=C(NC1CCN(C(=O)NC2CC2)CC1)O[C@@H]1CCN(c2cn[nH]c(=O)c2Cl)C1 [P-0146, (R)-1-(5-chloro-6-oxo-1,6-dihydropyridazin-4-yl)pyrrolidin-3-yl (1-(cyclopropylcarbamoyl)piperidin-4-yl)carbamate]	0.001 to 10 µM	0.001 to 10 µM
O=C(NC1CCN(C(=O)NC2CCCCC2)CC1)O[C@@H]1CCN(c2cn[nH]c(=O)c2Cl)C1 [P-0147, (R)-1-(5-chloro-6-oxo-1,6-dihydropyridazin-4-yl)pyrrolidin-3-yl (1-(cyclohexylcarbamoyl)piperidin-4-yl)carbamate]	0.001 to 10 µM	0.001 to 10 µM
O=C(NC1CCN(C(=O)Nc2ccc(F)cc2)CC1)O[C@@H]1CCN(c2cn[nH]c(=O)c2Cl)C1 [P-0148, (R)-1-(5-chloro-6-oxo-1,6-dihydropyridazin-4-yl)pyrrolidin-3-yl (1-((4-fluorophenyl)carbamoyl)piperidin-4-yl)carbamate]	0.001 to 10 µM	0.001 to 10 µM
NC(=O)N1CCC(NC(=O)O[C@@H]2CCN(c3cn[nH]c(=O)c3Cl)C2)CC1 [P-0149, (R)-1-(5-chloro-6-oxo-1,6-dihydropyridazin-4-yl)pyrrolidin-3-yl (1-carbamoylpiperidin-4-yl)carbamate]	0.001 to 10 µM	0.001 to 10 µM
CS(=O)(=O)N1CCC(NC(=O)O[C@@H]2CCN(c3cn[nH]c(=O)c3Cl)C2)CC1 [P-0150, (R)-1-(5-chloro-6-oxo-1,6-dihydropyridazin-4-yl)pyrrolidin-3-yl (1-(methylsulfonyl)piperidin-4-yl)carbamate]	0.001 to 10 µM	0.001 to 10 µM
N#Cc1c(N2CC[C@@H](OC(=O)NC3CCN(C4CCCC4)CC3)C2)cn[nH]c1=O [P-0151, (R)-1-(5-cyano-6-oxo-1,6-dihydropyridazin-4-yl)pyrrolidin-3-yl (1-cyclopentylpiperidin-4-yl)carbamate]	0.001 to 10 µM	0.001 to 10 µM
O=C(N[C@H]1CC[C@H](NS(=O)(=O)C2CC2)CC1)O[C@@H]1CCN(c2cn[nH]c(=O)c2Cl)C1 [P-0152, (R)-1-(5-chloro-6-oxo-1,6-dihydropyridazin-4-yl)pyrrolidin-3-yl ((1r,4R)-4-(cyclopropanesulfonamido)cyclohexyl)carbamate]	0.001 to 10 µM	0.001 to 10 µM
O=C(N[C@H]1CC[C@H](NS(=O)(=O)NC2CCCC2)CC1)O[C@@H]1CCN(c2cn[nH]c(=O)c2Cl)C1 [P-0153, (R)-1-(5-chloro-6-oxo-1,6-dihydropyridazin-4-yl)pyrrolidin-3-yl ((1r,4R)-4-((N-cyclopentylsulfamoyl)amino)cyclohexyl)carbamate]	0.001 to 10 µM	0.001 to 10 µM
Cc1c(N2CC[C@@H](OC(=O)NC3CCC(F)(F)C3)C2)cn[nH]c1=O (stereo partly drawn) [P-0154, (R)-1-(5-methyl-6-oxo-1,6-dihydropyridazin-4-yl)pyrrolidin-3-yl (3,3-difluorocyclopentyl)carbamate]	0.001 to 10 µM	0.001 to 10 µM
Cn1ncc(N2CC[C@@H](OC(=O)NC3CCCC3)C2)c(Cl)c1=O [P-0155, (R)-1-(5-chloro-1-methyl-6-oxo-1,6-dihydropyridazin-4-yl)pyrrolidin-3-yl cyclopentylcarbamate]	0.001 to 10 µM	0.001 to 10 µM
NC(=O)N[C@H]1CC[C@H](NC(=O)O[C@@H]2CCN(c3cn[nH]c(=O)c3Cl)C2)CC1 [P-0156, (R)-1-(5-chloro-6-oxo-1,6-dihydropyridazin-4-yl)pyrrolidin-3-yl ((1r,4R)-4-ureidocyclohexyl)carbamate]	0.001 to 10 µM	0.001 to 10 µM
CC(C)(C)OC(=O)NCC(=O)N1CCC(NC(=O)O[C@@H]2CCN(c3cn[nH]c(=O)c3Cl)C2)CC1 [P-0160, (R)-1-(5-chloro-6-oxo-1,6-dihydropyridazin-4-yl)pyrrolidin-3-yl (1-((tert-butoxycarbonyl)glycyl)piperidin-4-yl)carbamate]	0.001 to 10 µM	0.001 to 10 µM
